Tests used:
dry eye model [1] = experiment: Fluorescein staining score, 0.2% benzalkonium chloride dry eye model, Comparative Study 2 (Example 5); type: in vivo, mice; conditions: two days after start, compared with control; 0.03% apocynin, 0.5% (w/v) hyaluronic acid or 3% diquafosol sodium twice a day; FIG. 11A
Excerpt: After acclimating male C57BL6 mice (7 weeks old) to the experimental environment, those with almost uniform weight values and no eye abnormalities were divided into the following groups (n=3 to 4). • 7 weeks old/normal (non-dry eye group) • 7 weeks old/dry eye model+control (solvent eye drop) group • 7 weeks old/dry eye model+0.003% (w/v) apocynin eye drop group • 7 weeks old/dry eye model+0.03% (w/v) apocynin eye drop group • 7 weeks old/dry eye model+3% diquafosol sodium eye drop group • 7 weeks old/dry eye model+0.5% (w/v) hyaluronic acid eye drop group A dry eye model was created by instilling 3 μL of the 0.2% benzalkonium chloride solution into each of both eyes twice a day for 8 days. Then, the control group received PBS alone, and the test group received 0.003% (w/v), 0.03% (w/v) apocynin and 0.5% (w/v) hyaluronic acid in PBS. The 3% diquafosol sodium eye drop was instilled into each of both eyes at 3 μL, twice a day for 9 days. In Example 5, 1, 2, 5, and 9 days after the start of instillation of the comparative test drug, 1 μL of 0.1% sodium fluorescein solution was instilled into each of both eyes. Fluorescein-stained images were observed under a blue filter using a slit lamp (Kowa Co., Ltd., SL-17), and the degree of corneal epithelial damage was scored.

dry eye model [2] = experiment: Fluorescein staining score, benzalkonium chloride dry eye model, Comparative Study 1 (Example 4); type: in vivo, mice; conditions: 3 days after start of instillation, compared to control; 0.1% (w/v) apocynin or 0.5% (w/v) hyaluronic acid twice a day; FIG. 9A
Description: After acclimating male C57BL6 mice (7 weeks old) to the experimental environment, those with almost uniform weight values and no eye abnormalities were divided into the following groups (n=4). • 7 weeks old/normal (non-dry eye group) • 7 weeks old/dry eye model+control (solvent eye drop) group • 7 weeks old/dry eye model+0.1% (w/v) apocynin eye drop group • 7 weeks old/dry eye model+0.5% (w/v) hyaluronic acid eye drop group A dry eye model was prepared by instilling the benzalkonium chloride solution at 3 μL each eye, twice a day for 8 days. After that, the control group received the 0.5% methylcellulose solution alone, and the test group received 0.1% (w/v) apocynin or 0.5% (w/v) hyaluronic acid suspended in the 0.5% methylcellulose solution twice a day for 15 days at 3 μL for each of both eyes. In Example 4, 1, 3, 6, 8, and 15 days after the start of instillation of the comparative test drug, 1 μL of the 0.1% fluorescein sodium solution was instilled into each of both eyes. Fluorescein-stained images were observed under a blue filter using a slit lamp (Kowa Co., Ltd., SL-17), and the degree of corneal epithelial damage was scored.

[3] = reported for dry eye treatment; cited from earlier work

Compound | fluorescein staining score (corneal epithelial damage) (dry eye model [1]) | fluorescein staining score (corneal damage) (dry eye model [2]) | side effect specific to ingredients [3]
hyaluronic acid [reference compound] | no effect was observed | no effect was observed | 
O=C(NC(Cc1cc(=O)[nH]c2ccccc12)C(=O)O)c1ccc(Cl)cc1 (centres unmarked) [rebamipide] |  |  | causes dysgeusia
O=c1ccn([C@@H]2O[C@H](COP(=O)(O)OP(=O)(O)OP(=O)(O)OP(=O)(O)OC[C@H]3O[C@@H](n4ccc(=O)[nH]c4=O)[C@H](O)[C@@H]3O)[C@@H](O)[C@H]2O)c(=O)[nH]1 [diquafosol sodium, reference compound] | no effect was observed |  | causes ocular discharge and eye pain

Source: patent US20230338307A1, “PROPHYLACTIC AGENT, AMELIORATING AGENT, AND THERAPEUTIC AGENT FOR DRY EYE” (TSUBOTA LABORATORY, INC., priority 2020, published 2023)
